Measurements: patent US9976141B2, “Compositions and methods for inhibiting gene expression of Hif2alpha” (Arrowhead Madison Inc., priority 2015, dated 2018)
Values joined by “and” are separate entries in the source; they are usually repeats but may differ in a detail not shown here. Equal values may be shown once.

System: human (tumor) Hif2α (EPAS1) mRNA
Assay: Hif2α knockdown in orthotopic RCC tumor bearing mice, single injection of RNAi trigger-delivery polymer conjugate, RT-qPCR (Table 7)
Type: in vivo
Conditions: single tail vein injection, relative to isotonic glucose
Method in brief: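 A single intravenous dose of Hif2α RNAi trigger–delivery polymer conjugate, or isotonic glucose vehicle, was given to nude mice with subcapsular A498-SEAP renal tumours (about 5–6 weeks old). At the indicated time, tumour RNA was assayed by biplex TaqMan qPCR against CycA, and relative expression was calculated by ΔΔCT versus vehicle.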

[1] = RNAi trigger 50 μg, polymer 064 125 μg
[2] = RNAi trigger 75 μg, polymer 064 187.5 μg
[3] = RNAi trigger 100 μg, polymer 064 250 μg
[4] = RNAi trigger 150 μg, polymer 100A 300 μg

## AD01884 (antisense UUUCAUGAAAUCGUUACGUTT; sense ACGUAACGAUUUCAUGAAAT; Hif2alpha RNAi agent antisense strand; modified_base 2,4,6,8,10,14,16,18 /mod_base = “2′-deoxy-2′-fluoro corresponding nucleoside”; modified_base 1,3,5,7,9,11,12,13,15,17,19 /mod_base = “2′-O-methyl corresponding nucleoside”; modified_base 2,3,21 /mod_base = “5′-phosphorothioate corresponding nucleotide”; Hif2alpha RNAi agent sense strand; modified_base 1,3,5,7,8,9,11,13,15,17,19 /mod_base = “2′-deoxy-2′-fluoro corresponding nucleoside”; modified_base 2,4,6,10,12,14,16,18 /mod_base = “2′-O-methyl corresponding nucleoside”; modified_base 20 /mod_base = “3′-3′-linked nucleotide”; modified_base)
[1]
  Relative Expression day 4 (Hif2α mRNA in kidney tumor): 0.203
[2]
  Relative Expression day 4 (Hif2α mRNA in kidney tumor): 0.227
[3]
  Relative Expression day 4 (Hif2α mRNA in kidney tumor): 0.091

## AD01890 (antisense UGUAAAACAAUUGUGUACUTT; sense AGUACACAAUUGUUUUACAT; Hif2alpha RNAi agent antisense strand; modified_base 2,4,6,8,10,13,14,16,18 /mod_base = “2′-deoxy-2′-fluoro corresponding nucleoside”; modified_base 1,3,5,7,9,11,12,15,17,19 /mod_base = “2′-O-methyl corresponding nucleoside”; modified_base 2,3,21 /mod_base = “5′-phosphorothioate corresponding nucleotide”; Hif2alpha RNAi agent sense strand; modified_base 1,3,5,8,9,11,13,15,17,19 /mod_base = “2′-deoxy-2′-fluoro corresponding nucleoside”; modified_base 2,4,6,7,10,12,14,16,18 /mod_base = “2′-O-methyl corresponding nucleoside”; modified_base 20 /mod_base = “3′-3′-linked nucleotide”; modified_base)
[3]
  Relative Expression day 4 (Hif2α mRNA in kidney tumor): 0.256

## AD02692 (antisense UUUCAUGAAAUCGUUACGUUG; sense ACGUAACGAUUUCAUGAAAT; Hif2alpha RNAi agent antisense strand; modified_base 2,4,6,8,10,14,16,18 /mod_base = “2′-deoxy-2′-fluoro corresponding nucleoside”; modified_base 1,3,5,7,9,11,12,13,15,17,19,20,21 /mod_base = “2′-O-methyl corresponding nucleoside”; modified_base 2,3,20,21 /mod_base = “5′-phosphorothioate corresponding nucleotide”; Hif2alpha RNAi agent sense strand; modified_base 3,5,7,8,9,13,15,17 /mod_base = “2′-deoxy-2′-fluoro corresponding nucleoside”; modified_base 1,2,4,6,10,11,12,14,16,18,19 /mod_base = “2′-O-methyl corresponding nucleoside”; modified_base 20 /mod_base = “3′-3′-linked nucleotide”; modi)
[1]
  Relative Expression day 4 (Hif2α mRNA in kidney tumor): 0.092
[2]
  Relative Expression day 4 (Hif2α mRNA in kidney tumor): 0.089 and 0.121

## AD01410 (antisense TUUCAUGAAAUCGUUACGUCGGCUAU; sense UAUAUCGACGUAACGAUUUCAUGAAA; Hif2alpha RNAi agent antisense strand; modified_base 25 modified base = “2′-hydroxy corresponding nucleoside”; modified_base 2,4,6,8,10,12,14,16,18,20 /mod_base = “2′-deoxy-2′-fluoro corresponding nucleoside”; modified_base 3,5,7,11,13,15,17,19,21,22,23,24,26 /mod_base = “2′-O-methyl corresponding nucleoside”; modified_base 9 /mod_base = “2′-3′ seco corresponding nucleotide”; modified_base 2,24 /m; Hif2alpha RNAi agent sense strand; modified_base 2,4 modified base = “2′-hydroxy corresponding nucleoside”; modified_base 6,8,10,12,14,16,18,20,22,24,26 /mod_base = “2′-deoxy-2′-fluoro correspondi)
[4]
  Relative Expression day 4 (Hif2α mRNA in kidney tumor): 0.41

## AD03262 (antisense AUUCAUGAAAUCGUUACGUUG; sense ACGUAACGAUUUCAUGAAUT; Hif2alpha RNAi agent antisense strand; modified_base 2,8,10,14 /mod_base = “2′-deoxy-2′-fluoro corresponding nucleoside”; modified_base 1,3,4,5,6,7,9,11,12,13,15,16,17,18,19,20,21 /mod_base = “2′-O-methyl corresponding nucleoside”; modified_base 2,3,20,21 /mod_base = “5′-phosphorothioate corresponding nucleotide”; Hif2alpha RNAi agent sense strand; modified_base 7,8,9 /mod_base = “2′-deoxy-2′-fluoro corresponding nucleoside”; modified_base 1,2,3,4,5,6,10,11,12,13,14,15,16,17,18,19 /mod_base = “2′-O-methyl corresponding nucleoside”; modified_base 20 /mod_base = “3′-3′-linked nucleotide”; modi)
[1]
  Relative Expression day 4 (Hif2α mRNA in kidney tumor): 0.197

## AD01405 (antisense TUUCAUGAAAUCGUUACGUCGGCUAU; sense UAUAUCGACGUAACGAUUUCAUGAAA; Hif2alpha RNAi agent antisense strand; modified_base 25 modified base = “2′-hydroxy corresponding nucleoside”; modified_base 2,4,6,10,12,14,16,18,20 /mod_base = “2′-deoxy-2′-fluoro corresponding nucleoside”; modified_base 3,5,7,9,11,13,15,17,19,21,22,23,24,26 /mod_base = “2′-O-methyl corresponding nucleoside”; modified_base 8 /mod_base = “2′-3′ seco corresponding nucleotide”; modified_base 2,3,23,; Hif2alpha RNAi agent sense strand; modified_base 2,4 modified base = “2′-hydroxy corresponding nucleoside”; modified_base 6,8,10,12,14,16,18,20,22,24,26 /mod_base = “2′-deoxy-2′-fluoro correspondi)
[4]
  Relative Expression day 4 (Hif2α mRNA in kidney tumor): 0.51

## AD03264 (antisense UUUCAUGAAAUCGUUACGUUG; sense ACGUAACGAUUUCAUGAAAT; Hif2alpha RNAi agent antisense strand; modified_base 2,3,8,10,14 /mod_base = “2′-deoxy-2′-fluoro corresponding nucleoside”; modified_base 1,4,5,6,7,9,11,12,13,15,16,17,18,19,20,21 /mod_base = “2′-O-methyl corresponding nucleoside”; modified_base 2,3,20,21 /mod_base = “5′-phosphorothioate corresponding nucleotide”; Hif2alpha RNAi agent sense strand; modified_base 7,8,9 /mod_base = “2′-deoxy-2′-fluoro corresponding nucleoside”; modified_base 1,2,3,4,5,6,10,11,12,13,14,15,16,17,18,19 /mod_base = “2′-O-methyl corresponding nucleoside”; modified_base 20 /mod_base = “3′-3′-linked nucleotide”; modi)
[1]
  Relative Expression day 4 (Hif2α mRNA in kidney tumor): 0.264

## AD01657 (antisense TUUCAUGAAAUCGUUACGUTT; sense ACGUAACGAUUUCAUGAAAT; Hif2alpha RNAi agent antisense strand; modified_base 2,4,6,8,10,12,14,15,18 /mod_base = “2′-deoxy-2′-fluoro corresponding nucleoside”; modified_base 3,5,7,9,11,13,16,17,19 /mod_base = “2′-O-methyl corresponding nucleoside”; modified_base 2,21 /mod_base = “5′-phosphorothioate corresponding nucleotide”; Hif2alpha RNAi agent sense strand; modified_base 1,3,4,7,9,11,13,15,17,19 /mod_base = “2′-deoxy-2′-fluoro corresponding nucleoside”; modified_base 2,5,6,8,10,12,14,16,18 /mod_base = “2′-O-methyl corresponding nucleoside”; modified_base 20 /mod_base = “3′-3′-linked nucleotide”; modified_base 1 /)
RNAi trigger 100 μg, polymer 100A 250 μg
  Relative Expression day 4 (Hif2α mRNA in kidney tumor): 0.256

## AD03265 (antisense UUUCAUGAAAUCGUUACGUUG; sense UAUACGUAACGAUUUCAUGAAAT; Hif2alpha RNAi agent antisense strand; modified_base 2,4,6,8,14 /mod_base = “2′-deoxy-2′-fluoro corresponding nucleoside”; modified_base 1,3,5,7,9,10,11,12,13,15,16,17,18,19,20,21 /mod_base = “2′-O-methyl corresponding nucleoside”; modified_base 2,3,20,21 /mod_base = “5′-phosphorothioate corresponding nucleotide”; Hif2alpha RNAi agent sense strand; modified_base 2 modified base = “2′-hydroxy corresponding nucleoside”; modified_base 10,11,12 /mod_base = “2′-deoxy-2′-fluoro corresponding nucleoside”; modified_base 1,3,4,5,6,7,8,9,13,14,15,16,17,18,19,20,21,22 /mod_base = “2′-O-methyl correspon)
[1]
  Relative Expression day 4 (Hif2α mRNA in kidney tumor): 0.294
